How the values were obtained:
Rattus norvegicus [1] = assay: Percent inhibition of Urea nitrogen by the compound given as ratio of UN value in treated to vehicle treated ones fter intraperitoneal administration of 10 mg/kg of compound to rats(vehicle 137.9+/-8.5); format: functional; settings: ip
Adenosine A2 receptor = Adenosine A2 receptor (Rattus norvegicus, UniProt P29276+P30543)
Adenosine receptor A1 = target: T1, Adenosine receptor A1 (Cavia porcellus, UniProt P47745)
T1 sequence (P47745 whole entry): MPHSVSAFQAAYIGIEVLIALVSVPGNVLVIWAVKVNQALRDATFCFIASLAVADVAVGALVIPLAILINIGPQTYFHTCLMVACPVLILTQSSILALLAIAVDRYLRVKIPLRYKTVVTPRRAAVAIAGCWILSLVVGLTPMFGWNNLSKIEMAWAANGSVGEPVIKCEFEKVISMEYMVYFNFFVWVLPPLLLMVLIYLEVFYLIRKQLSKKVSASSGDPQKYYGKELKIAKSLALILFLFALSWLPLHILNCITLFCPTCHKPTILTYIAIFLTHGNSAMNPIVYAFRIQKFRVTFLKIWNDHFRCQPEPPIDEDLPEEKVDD
Description: Binding affinity against adenosine A1 receptor in guinea pig forebrain membranes using N6-[3H]cyclohexyladenosine as radioligand

Rattus norvegicus [2] = assay: Serum creatinine concentration measured after intraperitoneal administration of 10 mg/kg of compound to rats (vehicle0.63+/-0.29); format: functional
Rattus norvegicus [3] = assay: Ratio of urinary excretion value (Na+ concentration) in treated rats to that in control rats, at a peroral dose of 25 mg/Kg; format: functional, Urine
Rattus norvegicus [4] = assay: Ratio of sodium ion/potassium ion concentration in treated rats to that in control rats, at a peroral dose of 25 mg/Kg; format: functional
Rattus norvegicus [5] = assay: Oral diuretic activity was measured after oral administration of 25 mg/kg to rats(control volume is 0.80+/-0.13); format: functional, Urine
Rattus norvegicus [6] = assay: Effect on urinary excretion potassium and sodium after oral administration of 25 mg/kg to rats(potassium and sodium excretion in control rat is 0.160+/-0.017); format: functional, Urine
Rattus norvegicus [7] = assay: Ratio of urinary excretion value (urinary volume) in treated rats to that in control rats, at a peroral dose of 25 mg/Kg; format: functional, Urine
Rattus norvegicus [8] = assay: Percent inhibition of serum creatinine by the compound given as ratio of Cr value in treated to vehicle treated ones after intraperitoneal administration of 10 mg/kg of compound to rats (vehicle0.63+/-0.29); format: functional; settings: ip
Rattus norvegicus [9] = assay: Urea nitrogen concentration measured after intraperitoneal administration of 10 mg/kg of compound to rats(vehicle 137.9+/-8.5); format: functional
Rattus norvegicus [10] = assay: Ratio of urinary excretion value (Na+ concentration) in treated rats to that in control rats, at a peroral dose of 0.4 mg/Kg; format: functional, Urine
Rattus norvegicus [11] = assay: Ratio of sodium ion/potassium ion concentration in treated rats to that in control rats, at a peroral dose of 0.1 mg/Kg; format: functional
Rattus norvegicus [12] = assay: Ratio of urinary excretion value (urinary volume) in treated rats to that in control rats, at a peroral dose of 0.005 mg/Kg; format: functional, Urine
Rattus norvegicus [13] = assay: Ratio of urinary excretion value (Na+ concentration) in treated rats to that in control rats, at a peroral dose of 6.25 mg/Kg; format: functional, Urine
Rattus norvegicus [14] = assay: Effect on urinary excretion potassium and sodium after oral administration of 0.0025 mg/kg to rats(potassium and sodium excretion in control rat is 0.146+/-0.006); format: functional, Urine
Rattus norvegicus [15] = assay: Ratio of urinary excretion value (urinary volume) in treated rats to that in control rats, at a peroral dose of 0.1 mg/Kg; format: functional, Urine
Rattus norvegicus [16] = assay: Serum creatinine concentration measured after intraperitoneal administration of 1 mg/kg of compound to rats(vehicle 2.75+/-0.43); format: functional
Rattus norvegicus [17] = assay: Oral diuretic activity was measured after oral administration of 0.025 mg/kg to rats(control volume is 0.82+/-0.05); format: functional, Urine
Rattus norvegicus [18] = assay: Oral diuretic activity was measured after oral administration of 0.0025 mg/kg to rats(control volume is 0.95+/-0.12); format: functional, Urine
Rattus norvegicus [19] = assay: Oral diuretic activity was measured after oral administration of 0.4 mg/kg to rats(control volume is 1.4+/-0.05); format: functional, Urine
Rattus norvegicus [20] = assay: Ratio of urinary excretion value (Na+ concentration) in treated rats to that in control rats, at a peroral dose of 0.005 mg/Kg; format: functional, Urine
Rattus norvegicus [21] = assay: Oral diuretic activity was measured after oral administration of 25 mg/kg to rats(control volume is 0.66+/-0.04); format: functional, Urine
Rattus norvegicus [22] = assay: Ratio of urinary excretion value (Na+ concentration) in treated rats to that in control rats, at a peroral dose of 0.1 mg/Kg; format: functional, Urine
Rattus norvegicus [23] = assay: Ratio of urinary excretion value (urinary volume) in treated rats to that in control rats, at a peroral dose of 1.6 mg/Kg; format: functional, Urine
Rattus norvegicus [24] = assay: Ratio of urinary excretion value (Na+ concentration) in treated rats to that in control rats, at a peroral dose of 1.6 mg/Kg; format: functional, Urine
Rattus norvegicus [25] = assay: Percent inhibition of serum creatinine by the compound given as ratio of Cr value in treated to vehicle treated ones after intraperitoneal administration of 1 mg/kg of compound to rats(vehicle 2.75+/-0.43); format: functional; settings: ip
Rattus norvegicus [26] = assay: Ratio of urinary excretion value (urinary volume) in treated rats to that in control rats, at a peroral dose of 0.4 mg/Kg; format: functional, Urine
Rattus norvegicus [27] = species: Rattus norvegicus; format: functional, Urine; settings: po, 1.6 mg/kg
Rattus norvegicus [28] = assay: Oral diuretic activity was measured after oral administration of 0.1 mg/kg to rats(control volume is 0.92+/-0.05); format: functional, Urine
Rattus norvegicus [29] = assay: Effect on urinary excretion potassium and sodium after oral administration of 0.005 mg/kg to rats(potassium and sodium excretion in control rat is 0.160+/-0.006); format: functional, Urine
Rattus norvegicus [30] = assay: Ratio of sodium ion/potassium ion concentration in treated rats to that in control rats, at a peroral dose of 0.0025 mg/Kg; format: functional
Rattus norvegicus [31] = assay: Percent inhibition of Urea nitrogen by the compound given as ratio of UN value in treated to vehicle treated ones after intraperitoneal administration of 1 mg/kg of compound to rats(vehicle 123.2+/-14.2); format: functional; settings: ip
Rattus norvegicus [32] = assay: Ratio of sodium ion/potassium ion concentration in treated rats to that in control rats, at a peroral dose of 0.4 mg/Kg; format: functional
Rattus norvegicus [33] = assay: Ratio of urinary excretion value (urinary volume) in treated rats to that in control rats, at a peroral dose of 6.25 mg/Kg; format: functional, Urine
Rattus norvegicus [34] = assay: Effect on urinary excretion potassium and sodium after oral administration of 1.6 mg/kg to rats(potassium and sodium excretion in control rat is 0.173+/-0.016); format: functional, Urine
Rattus norvegicus [35] = assay: Effect on urinary excretion potassium and sodium after oral administration of 25 mg/kg to rats(potassium and sodium excretion in control rat is 0.138+/-0.008); format: functional, Urine
Rattus norvegicus [36] = assay: Ratio of urinary excretion value (urinary volume) in treated rats to that in control rats, at a peroral dose of 0.025 mg/Kg; format: functional, Urine
Rattus norvegicus [37] = assay: Ratio of urinary excretion value (Na+ concentration) in treated rats to that in control rats, at a peroral dose of 0.0025 mg/Kg; format: functional, Urine
Rattus norvegicus [38] = assay: Ratio of urinary excretion value (urinary volume) in treated rats to that in control rats, at a peroral dose of 0.0025 mg/Kg; format: functional, Urine
Rattus norvegicus [39] = assay: Effect on urinary excretion potassium and sodium after oral administration of 0.1 mg/kg to rats(potassium and sodium excretion in control rat is 0.143+/-0.013); format: functional, Urine
Rattus norvegicus [40] = assay: Ratio of sodium ion/potassium ion concentration in treated rats to that in control rats, at a peroral dose of 0.005 mg/Kg; format: functional
Rattus norvegicus [41] = assay: Effect on urinary excretion potassium and sodium after oral administration of 0.025 mg/kg to rats(potassium and sodium excretion in control rat is 0.183+/-0.012); format: functional, Urine
Rattus norvegicus [42] = assay: Effect on urinary excretion potassium and sodium after oral administration of 0.4 mg/kg to rats(potassium and sodium excretion in control rat is 0.261+/-0.008); format: functional, Urine
Rattus norvegicus [43] = assay: Urea nitrogen concentration measured after intraperitoneal administration of 1 mg/kg of compound to rats(vehicle 123.2+/-14.2); format: functional
Rattus norvegicus [44] = assay: Ratio of urinary excretion value (Na+ concentration) in treated rats to that in control rats, at a peroral dose of 0.025 mg/Kg; format: functional, Urine
Rattus norvegicus [45] = assay: Ratio of sodium ion/potassium ion concentration in treated rats to that in control rats, at a peroral dose of 1.6 mg/Kg; format: functional
Rattus norvegicus [46] = assay: Oral diuretic activity was measured after oral administration of 0.005 mg/kg to rats(control volume is 0.76+/-0.01); format: functional, Urine
Rattus norvegicus [47] = assay: Ratio of sodium ion/potassium ion concentration in treated rats to that in control rats, at a peroral dose of 0.025 mg/Kg; format: functional

Structure (SMILES): CCCn1c(=O)c2nc(CC34CC5CC(CC(C5)C3)C4)[nH]c2n(CCC)c1=O
- inhibition in vivo at 10 mg/kg (Rattus norvegicus [1]): 15%
- Ki (Adenosine A2 receptor): > 100000 nM
- Ki (Adenosine receptor A1): 880 nM
- Cr (Rattus norvegicus [2]): 3.21 mg/dL
- T/C (Rattus norvegicus [3]): 0.67
- Na+/K+ (Rattus norvegicus [4]): 0.84
- Urine volume (Rattus norvegicus [5]): 0.51 ml 6hr-1 100g-1
- Na (Rattus norvegicus [6]): 0.108 m equiv 6hr-1 100g-1
- T/C (Rattus norvegicus [7]): 0.64
- inhibition in vivo at 10 mg/kg (Rattus norvegicus [8]): 12%
- UN (Rattus norvegicus [9]): 117.8 mg/dL

Structure (SMILES): CCCn1c(=O)c2nc(C34CC5CC(CC3C5)C4)[nH]c2n(CCC)c1=O [ROLOFYLLINE]
- T/C (Rattus norvegicus [10]): 1.7
- Na+/K+ (Rattus norvegicus [11]): 1.9
- T/C (Rattus norvegicus [12]): 1.83
- Ki (Adenosine A2 receptor): 380 nM
- T/C (Rattus norvegicus [13]): 2.64
- Na (Rattus norvegicus [14]): 0.258 m equiv 6hr-1 100g-1
- T/C (Rattus norvegicus [15]): 2.65
- Cr (Rattus norvegicus [16]): 2 mg/dL
- Urine volume (Rattus norvegicus [17]): 1.75 ml 6hr-1 100g-1
- Urine volume (Rattus norvegicus [18]): 1.61 ml 6hr-1 100g-1
- Urine volume (Rattus norvegicus [19]): 2.64 ml 6hr-1 100g-1
- T/C (Rattus norvegicus [20]): 1.6
- T/C (Rattus norvegicus [3]): 3.44
- Urine volume (Rattus norvegicus [21]): 2.74 ml 6hr-1 100g-1
- T/C (Rattus norvegicus [22]): 2.34
- Na+/K+ (Rattus norvegicus [4]): 2.05
- T/C (Rattus norvegicus [23]): 2.61
- T/C (Rattus norvegicus [24]): 2.3
- inhibition in vivo at 1 mg/kg (Rattus norvegicus [25]): 47%
- T/C (Rattus norvegicus [26]): 1.86
- Urine volume (Rattus norvegicus [27]): 2.77 ml 6hr-1 100g-1
- Urine volume (Rattus norvegicus [28]): 2.44 ml 6hr-1 100g-1
- T/C (Rattus norvegicus [7]): 4.15
- Na (Rattus norvegicus [29]): 0.256 m equiv 6hr-1 100g-1
- Na+/K+ (Rattus norvegicus [30]): 1.59
- inhibition in vivo at 1 mg/kg (Rattus norvegicus [31]): 46%
- Na+/K+ (Rattus norvegicus [32]): 1.42
- T/C (Rattus norvegicus [33]): 2.9
- Na (Rattus norvegicus [34]): 0.399 m equiv 6hr-1 100g-1
- Na (Rattus norvegicus [35]): 0.457 m equiv 6hr-1 100g-1
- T/C (Rattus norvegicus [36]): 2.13
- T/C (Rattus norvegicus [37]): 1.76
- T/C (Rattus norvegicus [38]): 1.69
- Na (Rattus norvegicus [39]): 0.334 m equiv 6hr-1 100g-1
- Na+/K+ (Rattus norvegicus [40]): 1.11
- Na (Rattus norvegicus [41]): 0.331 m equiv 6hr-1 100g-1
- Na (Rattus norvegicus [42]): 0.447 m equiv 6hr-1 100g-1
- UN (Rattus norvegicus [43]): 66.4 mg/dL
- T/C (Rattus norvegicus [44]): 1.81
- Na+/K+ (Rattus norvegicus [45]): 1.93
- Urine volume (Rattus norvegicus [46]): 1.39 ml 6hr-1 100g-1
- Na+/K+ (Rattus norvegicus [47]): 1.45
